Experimental data from patent US20190328691A1, “ANTIBIOTIC THERAPY” (Boulos & Cooper Pharmaceuticals Pty Ltd, priority 2015, published 2019).
Like-named read-outs stand apart in the source and are kept apart here.

Assays:
[1] = test system: Staphylococcus aureus (ATCC 29213); assay: Checkerboard combination / MIC assay with S. aureus ATCC 29213; assay type: cell-based; details: S. aureus ATCC 29213; for MIC: Staphylococcus aureus, read-out: MIC of antibiotic alone
Experimental: (§1) Colonies were suspended in PBS. The absorbance of each suspension was measured with a spectrophotometer, and then the suspension was adjusted to 1×10^6 CFU/mL. The testing inoculum was prepared within 20 minutes before adding to wells of the test plate. Final cellular density in the checkerboard assays was 5×10^5 CFU/mL.
(§2) The combination effect of antibacterial substances administered together was evaluated by an in vitro checkerboard combination method with Staphylococcus aureus (ATCC 29213) and Staphylococcus aureus (BAA-1717). Ramizol and Chlopam were tested alone in 11 points by two-fold serial titration and in combination with different commercial antibiotics which were tested in a 7-point titration alone and in combination with Ramizol and Chlopam using the checkerboard technique as recommended by the Clinical & Laboratory Standards Institute (CLSI. Methods for Dilution In Antimicrobial Susceptibility Tests for Bacteria That Grow Aerobically; Approved Standard-Eighth Edition. CLSI document M07-A8 (ISBN 1-56238-689-1). Vol. 29 No. 2. Clinical and Laboratory Standards Institute, USA, 2009). The commercial antibiotics were also tested alone. Twenty-four checkerboard tests were performed.
(§3) The starting concentration of Ramizol, Chlopam, and the commercial antibiotics was four fold of the MIC. The testing range for each combination was described in the following summary tables.
(§4) Compound dilutions of Ramizol and Chlopam were performed in 100% DMSO and the final DMSO concentration in all test wells was 2%. Growth control wells also included 2% DMSO. CLSI protocol was followed for medium, inoculum preparation, and endpoint reading. The commercial antibiotics were dissolved and diluted in the CLSI specified diluent. The final inoculum count for each strain was 5×10^5 CFU/mL.
Cefepime, Daptomycin, Linezolid, Mupirocin, Oxacillin and Vancomycin were also tested alone. Each test substance was dissolved and diluted in 100% DMSO or specified solvent. Each test substance dilution (2 μL) was added to 96 μL broth CAMHB. CAMHB seeded with S. aureus ATCC 29213 at 1×10^6 CFU/mL (100 μL) was then added to the plate to generate a final cell count at 5×10^5 CFU/mL.
(§5) Assay plates were incubated and MIC endpoints were read as described in the MIC assay. FIC (Fraction Inhibitory Concentration) and FIC Index (FICI) values for each test condition and the average of FICI values of all pairwise combinations were calculated to determine if synergy or antagonism existed between the two substances. The FIC index was determined by calculating the sum of the ratios of MICs for both substances. Arithmetically, the FIC Index of a combination of Substance 1 and Substance 2 was defined as following: FICI=Σ[FIC(Substance 1)+FIC(Substance 2)]=[(MIC of Substance 1 in combination/MIC of Substance 1 alone)+(MIC of Substance 2 in combination/MIC of Substance 2 alone)]. Synergy is defined as the FICI (Σ)≤0.5; additivity as FICI (Σ)>0.5 to ≤1; indifference as FICI (Σ)>1 to ≤4; antagonism is defined as the FICI (Σ)>4 (Zinner and Blaser, J. Journal of Antimicrobial Chemotherapy (1986), 17, 1-5; Amin, et al BMC Complementary & Alternative Medicine (2015), 15, 59; Zuo, et al. Molecules (2011), 16, 9819-9826).

[2] = test system: Staphylococcus aureus (BAA-1717); assay: Checkerboard combination / MIC assay with S. aureus BAA-1717 (MRSA); assay type: cell-based; details: for Effect of individual antibiotic combinations: S. aureus BAA-1717
Experimental: as §1, §2, §3, §4
Each test substance was dissolved and diluted in 100% DMSO or specified solvent. Each test substance dilution (2 μL) was added to 96 μL broth CAMHB. CAMHB seeded with S. aureus BAA-1717 at 1×10^6 CFU/mL (100 μL) was then added to the plate to generate a final cell count at 5×10^5 CFU/mL.
as §5

CCCCCCCCCC(=O)N[C@@H](Cc1c[nH]c2ccccc12)C(=O)N[C@H](CC(N)=O)C(=O)N[C@@H](CC(=O)O)C(=O)N[C@@H]1C(=O)NCC(=O)N[C@@H](CCCN)C(=O)N[C@@H](CC(=O)O)C(=O)N[C@H](C)C(=O)N[C@@H](CC(=O)O)C(=O)NCC(=O)N[C@H](CO)C(=O)N[C@@H]([C@H](C)CC(=O)O)C(=O)N[C@@H](CC(=O)c2ccccc2N)C(=O)O[C@@H]1C [Daptomycin]
FICI of combination with Chlopam ([1]; Chlopam 0.003906 μg/mL + labelled antibiotic at MIC of same cell): 1.0 | MIC of antibiotic in combination with Chlopam ([1]; Chlopam 0.003906 μg/mL): 0.5 µg/mL | FICI of combination with Chlopam ([1]; Chlopam 0.0078125 μg/mL + labelled antibiotic at MIC of same cell): 1.0 | MIC of antibiotic in combination with Chlopam ([1]; Chlopam 0.0078125 μg/mL): 0.5 µg/mL | FICI of combination with Chlopam ([1]; Chlopam 0.015625 μg/mL + labelled antibiotic at MIC of same cell): 1.0 | MIC of antibiotic in combination with Chlopam ([1]; Chlopam 0.015625 μg/mL): 0.5 µg/mL | FICI of combination with Chlopam ([1]; Chlopam 0.25 μg/mL + labelled antibiotic at MIC of same cell): 1.0 | MIC of antibiotic in combination with Chlopam ([1]; Chlopam 0.25 μg/mL): 0.25 µg/mL | FICI of combination with Chlopam ([1]; Chlopam 0.5 μg/mL + labelled antibiotic at MIC of same cell): 1.0 | MIC of antibiotic in combination with Chlopam ([1]; Chlopam 0.5 μg/mL): 0.016 µg/mL | Effect of individual antibiotic combinations ([1]; Chlopam and daptomycin: 0.003901 and 0.5, 0.0078125 and 0.5, 0.015625 and 0.5, 0.25 and 0.25, 0.5 and 0.016 μg/mL): additive effect | FICI of combination with Ramizol ([1]; Ramizol 0.015625 μg/mL + labelled antibiotic at MIC of same cell): 1.0 | MIC of antibiotic in combination with Ramizol ([1]; Ramizol 0.015625 μg/mL): 0.5 µg/mL | FICI of combination with Ramizol ([1]; Ramizol 0.03125 μg/mL + labelled antibiotic at MIC of same cell): 1.0 | MIC of antibiotic in combination with Ramizol ([1]; Ramizol 0.03125 μg/mL): 0.5 µg/mL | FICI of combination with Ramizol ([1]; Ramizol 0.0625 μg/mL + labelled antibiotic at MIC of same cell): 1.0 | MIC of antibiotic in combination with Ramizol ([1]; Ramizol 0.0625 μg/mL): 0.5 µg/mL | FICI of combination with Ramizol ([1]; Ramizol 0.125 μg/mL + labelled antibiotic at MIC of same cell): 1.0 | MIC of antibiotic in combination with Ramizol ([1]; Ramizol 0.125 μg/mL): 0.5 µg/mL | FICI of combination with Ramizol ([1]; Ramizol 4 μg/mL + labelled antibiotic at MIC of same cell): 1.0 | MIC of antibiotic in combination with Ramizol ([1]; Ramizol 4 μg/mL): 0.016 µg/mL | Effect of individual antibiotic combinations ([1]; Ramizol and daptomycin: 0.015625 and 0.5, 0.03125 and 0.5, 0.0625 and 0.5, 0.125 and 0.5, 2 and 0.25, 2 and 0.125, 2 and 0.063, 2 and 0.031, 4 and 0.016 μg/mL): additive effect | MIC ([1]; ATCC29213, Table 4, checkerboard series with Chlopam): 0.5 µg/mL | MIC ([1]; ATCC29213, Table 7, checkerboard series with Ramizol): 0.5 µg/mL | mean FICI of combination with Chlopam ([1]; labelled antibiotic + Chlopam, mean of all pairwise combinations): 1.1 | Effect of the combinations with Ramizol (by mean FICI) ([1]; labelled antibiotic + Ramizol): additive effect | mean FICI of combination with Ramizol ([1]; labelled antibiotic + Ramizol, mean of all pairwise combinations): 1.0 | FICI of combination with Chlopam ([2]; Chlopam 0.001953 μg/mL + labelled antibiotic at MIC of same cell, S. aureus ATCC BAA-1717): 1.0 | MIC of antibiotic in combination with Chlopam ([2]; Chlopam 0.001953 μg/mL, S. aureus ATCC BAA-1717): 0.5 µg/mL | FICI of combination with Chlopam ([2]; Chlopam 0.003906 μg/mL + labelled antibiotic at MIC of same cell, S. aureus ATCC BAA-1717): 1.0 | MIC of antibiotic in combination with Chlopam ([2]; Chlopam 0.003906 μg/mL, S. aureus ATCC BAA-1717): 0.5 µg/mL | FICI of combination with Chlopam ([2]; Chlopam 0.0078125 μg/mL + labelled antibiotic at MIC of same cell, S. aureus ATCC BAA-1717): 1.0 | MIC of antibiotic in combination with Chlopam ([2]; Chlopam 0.0078125 μg/mL, S. aureus ATCC BAA-1717): 0.5 µg/mL | FICI of combination with Chlopam ([2]; Chlopam 0.015625 μg/mL + labelled antibiotic at MIC of same cell, S. aureus ATCC BAA-1717): 1.0 | MIC of antibiotic in combination with Chlopam ([2]; Chlopam 0.015625 μg/mL, S. aureus ATCC BAA-1717): 0.5 µg/mL | FICI of combination with Chlopam ([2]; Chlopam 0.5 μg/mL + labelled antibiotic at MIC of same line, S. aureus ATCC BAA-1717): 1.0 | MIC of antibiotic in combination with Chlopam ([2]; Chlopam 0.5 μg/mL, S. aureus ATCC BAA-1717): 0.016 µg/mL | Effect of individual antibiotic combinations ([2]; Chlopam and daptomycin: 0.001953 and 0.5, 0.003901 and 0.5, 0.0078125 and 0.5, 0.015625 and 0.5, 0.5 and 0.016 μg/mL): additive effect | FICI of combination with Ramizol ([2]; Ramizol 0.015625 μg/mL + labelled antibiotic at MIC of same cell, S. aureus ATCC BAA-1717): 1.0 | MIC of antibiotic in combination with Ramizol ([2]; Ramizol 0.015625 μg/mL, S. aureus ATCC BAA-1717): 0.5 µg/mL | FICI of combination with Ramizol ([2]; Ramizol 0.03125 μg/mL + labelled antibiotic at MIC of same cell, S. aureus ATCC BAA-1717): 1.0 | MIC of antibiotic in combination with Ramizol ([2]; Ramizol 0.03125 μg/mL, S. aureus ATCC BAA-1717): 0.5 µg/mL | FICI of combination with Ramizol ([2]; Ramizol 0.0625 μg/mL + labelled antibiotic at MIC of same cell, S. aureus ATCC BAA-1717): 1.0 | MIC of antibiotic in combination with Ramizol ([2]; Ramizol 0.0625 μg/mL, S. aureus ATCC BAA-1717): 0.5 µg/mL | FICI of combination with Ramizol ([2]; Ramizol 0.125 μg/mL + labelled antibiotic at MIC of same line, S. aureus ATCC BAA-1717): 1.0 | MIC of antibiotic in combination with Ramizol ([2]; Ramizol 0.125 μg/mL, S. aureus ATCC BAA-1717): 0.5 µg/mL | FICI of combination with Ramizol ([2]; Ramizol 2 μg/mL + labelled antibiotic at MIC of same line, S. aureus ATCC BAA-1717): 1.0 | MIC of antibiotic in combination with Ramizol ([2]; Ramizol 2 μg/mL, S. aureus ATCC BAA-1717): 0.25 µg/mL | FICI of combination with Ramizol ([2]; Ramizol 4 μg/mL + labelled antibiotic at MIC of same cell, S. aureus ATCC BAA-1717): 1.0 | MIC of antibiotic in combination with Ramizol ([2]; Ramizol 4 μg/mL, S. aureus ATCC BAA-1717): 0.016 µg/mL | Effect of individual antibiotic combinations ([2]; Ramizol and daptomycin: 0.015625 and 0.5, 0.03125 and 0.5, 0.0625 and 0.5, 0.125 and 0.5, 2 and 0.25, 4 and 0.016 μg/mL): additive effect | MIC ([2]; Staphylococcus aureus, ATCC BAA-1717 / BAA-1717, Table 4, checkerboard series with Chlopam, S. aureus ATCC BAA-1717, read-out: MIC of antibiotic alone): 0.5 µg/mL | MIC of antibiotic alone ([2]; Table 7, checkerboard series with Ramizol, S. aureus ATCC BAA-1717): 0.5 µg/mL | mean FICI of combination with Chlopam ([2]; labelled antibiotic + Chlopam, mean of all pairwise combinations, S. aureus ATCC BAA-1717): 1.2 | mean FICI of combination with Ramizol ([2]; labelled antibiotic + Ramizol, mean of all pairwise combinations, S. aureus ATCC BAA-1717): 1.1
